Measured values as given in US20030027791A1, “Composition and method for reducing adverse interactions between phenothiazine derivatives and plasma using cyclodextrins” (Wyeth, priority 2001, published 2003).

Experiments:
[1] = in vivo; cited from earlier work
[2] = intravenous use; cited from earlier work
[3] = Precipitate formation when promethazine hydrochloride preparation is mixed with plasma in vitro; assay type: physicochemical; details: mixing ratio not stated
Source text: Without being bound by any particular theory, it is believed that this precipitate formation could be related to the venous thrombosis found at the injection site, as well as the cause of other local adverse reactions involving promethazine hydrochloride injection. […] With a composition according to one or more of the embodiments set forth herein, it is expected that a promethazine hydrochloride solution given by the routes of i.v. and i.m. (intramuscular) injection would have fewer incidences of irritation and other adverse reactions at the site of injection.

- Precipitate formation when solution is mixed with plasma in vitro [3]: precipitates form immediately
SMILES: CC(CN1c2ccccc2Sc2ccccc21)N(C)C.Cl (racemic) [promethazine hydrochloride, 10H-Phenothiazine-10-ethanamine, N,N, α-trimethyl-, monohydrochloride, (±)-]
- Plasma creatine kinase levels [1]: raise plasma creatine kinase levels
- Adverse reactions at the injection site [2]: some incidents of venous thrombosis at the injection site have been encountered
